For this data set, the system named is skin epidermis.

As to Cocoyl Isethionate, the “Relative Skin Barrier Penetration Value” is 40 and the “Total mg Water Penetrating the Skin in 24 Hours” value was determined as 60.3 ± 17.7 mg.

These data come from patent EP0308189B1, “Skin cleansing toilet bar with low moisture content” (THE PROCTER & GAMBLE COMPANY, priority 1987, dated 1989).
